Data taken from patent US8153589B2, “JNK3 as a target for the treatment of angiogenesis-related diseases” (The University of North Carolina at Chapel Hill, priority 2009, dated 2012).
Like-named read-outs stand apart in the source and are kept apart here.

Columns and labels:
MKP7 [1] = test: Biotin switch assay, MKP7 S-nitrosylation by NO donors in lysates of transfected HEK293T cells; assay type: biochemical
Description: (§1) Experiments were performed following the methods previously described by Dr. Stamler's laboratory (39). Cell lysates containing Flag or Myc-tagged MKP7 protein were treated with the indicated concentrations of GSNO followed by the addition of 2 volumes of HEN buffer and freshly prepared S-methyl methanethiosulfonate (10% v/v in N,N-dimethylformamide) and SDS (25% v/v) to final concentrations of 0.1 and 2.5%, respectively. Following frequent vortexing at 50° C. for 1 hour, proteins were precipitated with 3 volumes of acetone at −20° C. for 30 min. The proteins were recovered by centrifugation at 5,000×g for 5 min, followed by gentle rinsing of the pellet with 3×1 ml acetone. The pellets were then resuspended in 240 μl of HEN buffer containing 1% SDS. The resuspended protein was precipitated, rinsed and resuspended once more. For labeling, the blocked samples were mixed with 0.1 volume of biotin-HPDP (2.5 mg/ml in Me2SO) and 0.1 volume of HEN (control) or freshly prepared sodium Ascorbic acid in HEN buffer. Labeling reactions were performed in the dark at room temperature for 1 h unless otherwise indicated. To detect an MKP7 SNO protein from cells or lysates, the labeling reaction was acetone-precipitated as previously described. The washed pellet was resuspended in 250 μl of HEN/10 (HEN diluted 10-fold into H2O) containing 1% SDS, followed by addition of 750 μl of neutralization buffer (25 mM HEPES, 100 mM NaCl, 1 mM ETDA, 1% Triton X-100, pH 7.5). This material was incubated overnight at 4° C. with 40 μl of streptavidin-agarose beads. The beads were washed with 3×1 ml of wash buffer (neutralization buffer+500 mM NaCl) and 2×1 ml of neutralization buffer. The dried beads were eluted with 50 μl of HEN/10+1%-mercaptoethanol. The eluted mixture was then analyzed by SDS-PAGE, followed by immunoblotting with anti-Flag-HRP (1:5000) or antibodies.
(§2) The preceding experiments indicate that eNOS and its downstream effector JNK3 are required for SDF-1α-induced endothelial cell migration. However, the molecular mechanisms of eNOS-dependent regulation of JNK3 activity are not intuitive. In the course of exploring various potential regulatory mechanisms, we considered the possibility that regulation of JNK3 by eNOS was determined by suppression of dephosphorylation activities. When cells were incubated with sodium orthovanadate, an inhibitor of protein tyrosine and dual-specificity protein phosphatases, JNK phosphorylation increased both under basal conditions and, most prominently, after SDF-1α treatment (FIG. 3A). […] MKP7, a member of the dual-specificity family of protein phosphatases, interacts with the JNK3 scaffold protein β-arrestin2 (25). Located within the N-terminal catalytic domain of MKP7, the Cys^244 residue is highly sensitive to oxidation due to its low pKa and this oxidation is required for decreased MKP7 activity and sustained activation of JNK3 under certain conditions (26). […] MKP7 S-nitrosylation was also detected with another NO donor-DETA NONOate; the addition of DTT blocked its nitrosylation (data not shown). To further explore the nitrosylation of MKP7 by NO donors, SNOs in MKP7 were replaced with biotin (biotin switch), and peptides generated by trypsinization were purified by avidin chromatography and analyzed by MALDI-TOF and ESI-MS/MS. […]

MKP7 [2] = target: T1, MKP7 (Homo sapiens, UniProt Q9BY84, C244S); test: as above; assay type: biochemical
T1 construct: the mutants of full-length MKP7, MKP7-C244S and MKP7-C244A; expressed in transfected cells; host or cells: HEK293T
T1 sequence (Q9BY84 1-317 C244S): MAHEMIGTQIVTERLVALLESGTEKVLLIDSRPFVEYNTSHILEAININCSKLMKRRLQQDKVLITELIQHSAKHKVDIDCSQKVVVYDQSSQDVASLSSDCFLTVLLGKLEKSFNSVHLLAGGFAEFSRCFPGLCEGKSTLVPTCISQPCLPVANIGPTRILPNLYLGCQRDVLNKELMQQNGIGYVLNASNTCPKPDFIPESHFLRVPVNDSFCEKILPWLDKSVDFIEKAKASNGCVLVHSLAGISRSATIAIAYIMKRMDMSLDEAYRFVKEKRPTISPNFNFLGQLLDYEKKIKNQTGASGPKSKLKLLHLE
Description: as §1, §2

MKP7 [3] = assay type: biochemical
Description: (§4) Flag-MKP7 protein was prepared from the cells transfected with Flag-MKP7 by immunoprecipitation using Flag beads (Sigma). The precipitate was washed twice with lysis buffer containing high salt (1 M NaCl) followed by 2 washes with the reaction buffer. In vitro phosphatase reactions were carried out at 37° C. for 1 hour in I.V.P.A buffer (20 mM Tris⊕HCl, pH7.0, 0.1 mM MgCl2, 1 mM MnCl2, 1 ┌g/┌1 BSA, 1 mM DTT in reduced samples) with 25 ng active JNK3 purified protein (Upstate). The reaction was stopped by the addition of 2× loading buffer followed by western blotting analysis with phospho-specific JNK and JNK antibodies.
(§5) To determine whether this S-nitrosylation event affected MKP7 activity, we performed an in vitro phosphatase activity analysis using activated JNK3 protein in a reaction with MKP7-concentrated cell lysates. […] The activities of these mutants were also evaluated using an in vitro phosphatase assay.

MKP7 [4] = target: T1, MKP7; assay type: biochemical
Description: as §4, §5

BAECs [5] = test: Boyden chamber migration assay; assay type: cell-based, bovine
Description: Boyden chamber assays were performed as previously described (40, 41) using a 48-well chamber apparatus (NeuroProbe, Cabin John, Md.). The lower chambers of the apparatus were filled with DMEM with or without SDF-1alpha and then covered with the collagen-coated filter and the upper chambers. Cells pretreated with or without the indicated inhibitors were then added to the upper chambers. After incubating for 6 h at 37° C., cells present on the lower surface were fixed, stained and identified with the 40× objective lens on a Nikon Eclipse TS 100 inverted microscope.
To determine whether eNOS activation is required for SDF-1α-mediated endothelial cell migration, we performed scratch-wound healing and Boyden chamber migration assays in the presence of the NOS-specific inhibitor L-NMMA (19). Confluent BAECs were pretreated for one hour with 1 mM or 5 mM L-NMMA or vehicle prior to each assay. […] Endothelial cells were transfected with 1 of 3 different bovine eNOS-specific siRNAs, or mixture of all three, and 72 hours later cell lysates were examined by western blot analysis for levels of eNOS protein.

ERK1/2 = ERK1/2 activation, Western blot in BAECs; assay type: cell-based, bovine; settings: L-NMMA, SDF-1α-treated BAECs
Description: (§3) Cells were harvested in lysis buffer (1% Triton X-100, 50 mM Tris, pH 7.4, 150 mM NaCl, 1 mM Na3VO4 and 0.1% protease inhibitor tablet; Roche) and clarified by centrifugation at 16,000 g. Equal amounts of proteins were incubated with a specific antibody overnight at 4° C. with gentle rotation. Protein A/G Plus-agarose beads (Santa Cruz Biotechnology, Santa Cruz, Calif.) were used to pull down the antibody complexes. Afterward, beads were washed with lysis buffer, and immune complexes were separated by SDS-PAGE. Total cell lysates were separated by SDS-PAGE and transferred to nitrocellulose membranes.
Mitogen-activated protein kinases (MAPKs), including ERK1/2 and p38, have been reported to enhance angiogenesis (20, 21). However, the role of JNK in angiogenesis remains controversial, with studies showing both positive and negative outcomes of JNK activation. In order to determine which MAPKs are involved in SDF-1α-induced endothelial cell migration, we screened the activities and expression levels of ERK1/2, p38 and JNK following treatment of BAECs with SDF-1α. […] SDF-1α activated both JNK and ERK1/2 in a dose-dependent manner (FIG. 2B). […] Exogenous JNK1, JNK2 and JNK3 proteins containing Flag or GFP-epitopes were transiently expressed in BAECs and their activities were determined via western blotting with a phospho-JNK antibody following SDF-1α treatment. […]

JNK3 = test: JNK activation (phospho-JNK Western blot) in BAECs; assay type: cell-based, bovine; settings: for SDF-1α-induced JNK phosphorylation in siRNA-transfected cells: BAECs, 50 ng/ml SDF-1alpha for 10 minutes
Description: as §3
Mitogen-activated protein kinases (MAPKs), including ERK1/2 and p38, have been reported to enhance angiogenesis (20, 21). However, the role of JNK in angiogenesis remains controversial, with studies showing both positive and negative outcomes of JNK activation. In order to determine which MAPKs are involved in SDF-1α-induced endothelial cell migration, we screened the activities and expression levels of ERK1/2, p38 and JNK following treatment of BAECs with SDF-1α. […] SDF-1α activated both JNK and ERK1/2 in a dose-dependent manner (FIG. 2B). […] Protein and mRNA for all three JNK isoforms, JNK1, JNK2 and JNK3, can be found in BAECs (FIGS. 5, A&B). In order to determine which JNK protein(s) was activated by SDF-1α in these cells we used a previously described assay (22). Exogenous JNK1, JNK2 and JNK3 proteins containing Flag or GFP-epitopes were transiently expressed in BAECs and their activities were determined via western blotting with a phospho-JNK antibody following SDF-1α treatment. […] To confirm the finding that JNK3 is the only JNK entity activated by SDF-1α, we transfected cells with siRNAs for each of the JNK proteins and then tested the effect of each siRNA for the ability to suppress SDF-1α-induced JNK activation. […] Because JNK3 was the only SDF-1α-activated JNK in endothelial cells in our studies (FIG. 2C & FIG. 5, C), we consider the phospho-JNK signals in western blots with anti-phospho-JNK antibody as the signals for activated JNK3.

BAECs [6] = test: Scratch wound healing assay; assay type: cell-based, bovine; settings: L-NMMA pretreatment (1 mM or 5 mM, one hour) plus 50 ng/ml SDF-1alpha
Description: For detection of cell migration, a wound healing assay was performed as previously described (40). BAECs were grown on 35 mm wells, the monolayer was scratched with a sterile disposable rubber policeman and the edge labeled with a traced line. After injury, the cells were gently washed with normal media without serum. EC migration from the edge of the injured monolayer was quantified by measuring the area between the wound edges before and the recovered area after injury using light microscopy (Eclipse TS100, 4× objective, Nikon) and the computer program ImageJ.
To determine whether eNOS activation is required for SDF-1α-mediated endothelial cell migration, we performed scratch-wound healing and Boyden chamber migration assays in the presence of the NOS-specific inhibitor L-NMMA (19). Confluent BAECs were pretreated for one hour with 1 mM or 5 mM L-NMMA or vehicle prior to each assay. […] Similarly, cell migration in Boyden chambers was induced by SDF-1α (from 8±3 to 86±5 cells per field), but this increase in migration was inhibited by the pre-incubation of BAECs with L-NMMA (FIG. 1D). The involvement of eNOS in SDF-1α-induced endothelial cell migration was confirmed by treatment of cells with siRNAs specific for eNOS. […]

BAECs [7] = test: In vitro Matrigel angiogenesis (tube formation) assay; assay type: cell-based, bovine; settings: siRNA-expressing cells
Description: Endothelial cell tube formation was analyzed with the Matrigel-based tube formation assay (40, 41). Chilled 24-well plates were coated with growth factor-reduced Matrigel (Becton Dickinson, San Jose, Calif.) that was polymerized at 37° C. for 30 min. BAECs were transfected with siRNA constructs with the Amaxa Nucleofector electroporation reagent. Three days later, cells were trypsinized, and plated at equal numbers into each Matrigel-coated well. After 18 hours of incubation in the absence or presence of SDF-1alpha, the formation of tubes was photographed (Eclipse, 10× objective, TS100Nikon). Images were quantified with ImageJ.
Endothelial cell migration is a critical step for tube formation during angiogenesis. To test the importance of JNK3 in highly ordered cell assembly processes, we examined the effect of JNK knockdown with siRNAs on the formation of capillary-like tubes in Matrigel. BAECs were transfected with JNK1 siRNA, JNK2 siRNA, JNK3 siRNA or control siRNA. After 72 hours, cells were plated on Matrigel in medium containing 50 ng/ml SDF-1α.

[8] = Myc-MKP7, GSNO 500 μM, 10 minutes

Compound: NCCN(CCN)/[N+]([O-])=N/O [DETA NONOate]
- S-nitrosylation of MKP7 (MKP7 [1]; [8]): detected

Compound: O[C@@H](CS)[C@@H](O)CS [DTT]
- S-nitrosylation of MKP7 (MKP7 [1]; [8]): blocked

Compound: N[C@@H](CCC(=O)N[C@@H](CSN=O)C(=O)NCC(=O)O)C(=O)O [GSNO, nitrosoglutathione]
- S-nitrosylation of MKP7 (MKP7 [1]): S-nitrosylated
- nitrosylation of MKP7-WT and MKP7-ΔC (MKP7 [1]): strongly nitrosylated
- nitrosylation of MKP7-ΔC (C244S) compared to MKP7-ΔC (MKP7 [2]): markedly attenuated
- MKP7 phosphatase activity (MKP7 [3]): markedly inhibited
- phosphatase activity of MKP7-WT and MKP7-ΔC (MKP7 [3]): decreased dramatically
- phosphatase activity of MKP7-ΔC (C244S) (MKP7 [4]): essentially unchanged

Compound: CNC(=N)NCCC[C@H](N)C(=O)O [L-NMMA, reference compound]
- SDF-1α-induced increase in migration in Boyden chambers (BAECs [5]; pre-incubation with L-NMMA, 50 ng/ml SDF-1alpha): inhibited
- ERK activation (ERK1/2): not affected
- JNK3 activation induced by SDF-1α (JNK3; 0.5-5 mM L-NMMA, 50 ng/ml SDF-1alpha for 5 minutes): specifically inhibited
- BAEC migration towards the wounded area (BAECs [6]): 17.7±2.4%

Compound: Oc1c2ccccc2c2c3c(cccc13)N=N2 [SP600125]
- SDF-1α-mediated endothelial cell migration (BAECs [5]; 10 μM SP600125, 50 ng/ml SDF-1alpha): 27±3 cells
- SDF-1α-mediated endothelial cell migration (BAECs [5]; 50 μM SP600125, 50 ng/ml SDF-1alpha): 20±2 cells

Compound: N#CC(=C(/N)Sc1ccccc1N)/C(C#N)=C(\N)Sc1ccccc1N [U0126]
- endothelial cell migration induced by SDF-1α (BAECs [5]; 20 μM U0126 (data not shown)): decreased

Compound: [Na+].[Na+].[Na+].[O]=[V]([O-])([O-])[O-] [sodium orthovanadate, reference compound]
- JNK phosphorylation (JNK3; Na3VO4 10, 100, 500 μM, basal and after 50 ng/ml SDF-1α): increased

Compound: JNK1 siRNA: AUAACAAAUCCCUUGCCUGACUGGC (SEQ ID NO:4) (listed as RNA, chemistry not given here)
- tube length (BAECs [7]; with 50 ng/ml SDF-1α): 438±108 μm
- tube length (BAECs [7]; without SDF-1α): 88±23 μm
- SDF-1α-induced JNK phosphorylation in siRNA-transfected cells (JNK3): significantly enhanced

Compound: JNK2 siRNA: AGUUGAGUCU GCCACUUGUACACUG (SEQ ID NO:5) (AGUUGAGUCUGCCACUUGUACACUG; listed as RNA, chemistry not given here)
- tube length (BAECs [7]; with 50 ng/ml SDF-1α): 504±93 μm
- tube length (BAECs [7]; without SDF-1α): 121±61 μm
- SDF-1α-induced JNK phosphorylation in siRNA-transfected cells (JNK3): significantly enhanced
